Values of other authors, collected in patent US20120015899A1 (priority 2008, published 2012).

For `Cl.Nc1ccn([C@@H]2O[C@H](CO)[C@@H](O)C2(F)F)c(=O)n1` [Gemcitabine, Cytidine, 2′-deoxy-2′,2′-difluoro-, monohydrochloride], the pKa is listed as 3.58.
